Experimental data from PMC7226869 (ACS Omega, 2020).
Where two headings read alike, the source gives them in different places.

Tests used:
[1] = biological target: T1, New Delhi metallo-β-lactamase-1 (NDM-1) (Klebsiella pneumoniae, UniProt E9NWK5); test: 1H-15N HSQC NMR titration; assay type: binding
[2] = biological target: T1, New Delhi metallo-β-lactamase-1 (NDM-1); test: imipenem hydrolysis by purified NDM-1; assay type: biochemical
KPC-2 = KPC-2 (Klebsiella pneumoniae, UniProt Q93LQ9); test: carbapenemase inhibition at a single concentration; assay type: biochemical; conditions: read-out: % inhibition at 50 μM
OXA-48 = OXA-48 (Klebsiella pneumoniae, UniProt Q6XEC0); test: carbapenemase inhibition at a single concentration; assay type: biochemical; conditions: read-out: % inhibition at 50 μM
[3] = biological target: T1, New Delhi metallo-β-lactamase-1 (NDM-1); test: imipenem hydrolysis by purified NDM-1; assay type: biochemical; remark: listed apart in the source

Chain of OXA-48 (Q6XEC0 23-265 limits assumed): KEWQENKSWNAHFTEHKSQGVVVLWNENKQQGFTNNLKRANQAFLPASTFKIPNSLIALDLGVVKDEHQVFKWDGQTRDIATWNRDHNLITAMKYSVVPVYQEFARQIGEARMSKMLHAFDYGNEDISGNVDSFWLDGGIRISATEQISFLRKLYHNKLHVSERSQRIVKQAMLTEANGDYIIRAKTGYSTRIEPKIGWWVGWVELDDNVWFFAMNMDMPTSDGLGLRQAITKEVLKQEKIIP

O=c1c(O)c(-c2ccc(O)cc2O)oc2cc(O)cc(O)c12 [morin] was tested, and the Kd [1] was about 300 µM.
O=c1c(O)c(-c2cc(O)c(O)c(O)c2)oc2cc(O)cc(O)c12 [myricetin] showed an IC50 [2] of 3.3 µM, an inhibition at 50 µM (KPC-2) of 78% and an inhibition at 50 µM (OXA-48) of 90%.
O=c1c(O)c(-c2ccc(O)c(O)c2)oc2cc(O)cc(O)c12 [quercetin] showed an IC50 [3] of 5 to 10 µM.
